Measured values reported in patent US8829014B2, “Thiazole and thiophene analogues, and their use in treating autoimmune diseases and cancers” (Board of Supervisors of Louisiana State University and …, priority 2006, dated 2014).

How the values were obtained:
carageenan-induced edema = experiment: Carrageenan-induced rat paw edema test (anti-inflammatory activity); format: in vivo, Sprague-Dawley rats
Procedure, shortened: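 Edema was raised by sub-plantar injection of 1% carrageenan into the right hind paw, 1 h after dosing 18 h-fasted male/female Sprague-Dawley rats (150-250 g) with 50 mg/kg p.o. in 0.1% CMC. Swelling was measured by displacement 3 h later and expressed as % protection against saline control.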

NF-κB = experiment: TNF-α-induced NF-κB-dependent luciferase expression in HEK cells; format: cell-based; conditions: 1 uM; luciferase in HEK/NF-κB cells, as described in Example 398
AP-1 = experiment: PMA-induced AP-1 luciferase expression in HEK cells; format: cell-based; conditions: 1 uM; luciferase in HEK/AP-1 cells, as described in Example 398
[1] = rat paw edema, 50 mg/kg, reading 3 hours after carrageenan; [(Control−Test)/Control]×100%
[2] = Rattus norvegicus, po, 3 h, rat paw edema, 50 mg/kg, reading 3 hours after carrageenan; [(Control−Test)/Control]×100%; read-out: % Protection P

Compound | % Protection P (carageenan-induced edema; [1]) [%] | inhibition in vivo at 50 mg/kg (carageenan-induced edema; [2]) [%] | further results
2-[4-(4-Methylsulfanyl-phenyl)-5-morpholin-4-yl-thiophen-2-yl]-3-phenyl-3H-quinazolin-4-one [Example 276] | 49 | – | NFkB inhibition @ 1 uM (NF-κB): −10; AP-1 inhibition @ 1 uM (AP-1): −17
CC(=O)Nc1ccc(-c2cc(-c3nc4ccccc4c(=O)n3-c3ccccc3)sc2N2CCOCC2)cc1 [Example 274, N-{4-[2-Morpholin-4-yl-5-(4-oxo-3-phenyl-3-,4-dihydro-quinazolin-2-yl)-thiophene-3-yl]-phenyl}-acetamide] | 28 | – | NFkB inhibition @ 1 uM (NF-κB): 29
O=c1c2ccccc2nc(-c2cc(-c3ccncc3)c(N3CCOCC3)s2)n1-c1ccccc1 [Example 277] | 65 | – | AP-1 inhibition @ 1 uM (AP-1): 38
COc1ccccc1-n1c(-c2cc(-c3ccncc3)c(N3CCOCC3)s2)nc2ccccc2c1=O [Example 298] | 42 | – | NFkB inhibition @ 1 uM (NF-κB): 55
COc1ccc(C(=O)c2sc(Nc3ccccc3)nc2NC(=O)Nc2ccc(F)cc2)cc1 [Example 354, 1-(4-Fluoro-phenyl)-3-[5-(4-methoxy-benzoyl)-2-phenylamino-thiazol-4-yl]-urea] | – | – | % Protection P (carageenan-induced edema; rat paw edema, 50 mg/kg, reading 3 hours after carrageenan; [(Control−Test)/Control]×100%; 50 mg/kg): 26.27%
COc1ccc(C(=O)c2sc(Nc3ccc(Cl)cc3)nc2NC(=O)Nc2ccc(F)cc2)cc1 [Example 355, 1-[2-(4-Chloro-phenylamino)-5-(4-methoxy-benzoyl)-thiazol-4-yl]-3-(4-fluoro-phenyl)-urea] | – | 62.6 | –
O=C(Nc1ccc(F)cc1)Nc1nc(Nc2ccc(Cl)cc2)sc1C(=O)c1ccc(Cl)cc1 [Example 357, 1-[5-(4-Chloro-benzoyl)-2-(4-chloro-phenylamino)-thiazol-4-yl]-3-(4-fluoro-phenyl)-urea] | – | 24.3 | –
O=C(Nc1ccc(F)cc1)Nc1nc(Nc2ccc(Cl)cc2)sc1C(=O)c1ccc(Cl)cc1Cl [Example 358, 1-[2-(4-Chloro-phenylamino)-5-(2,4-dichloro-benzoyl)-thiazol-4-yl]-3-(4-fluoro-phenyl)-urea] | – | 72.5 | –
O=C(Nc1ccc(F)cc1)Nc1nc(Nc2ccc(Cl)cc2)sc1C(=O)c1cccnc1 [Example 359, 1-[2-(4-Chloro-phenylamino)-5-(pyridine-3-carbonyl)-thiazol-4-yl]-3-(4-fluoro-phenyl)-urea] | – | 64.2 | –
O=C(Nc1ccc(F)cc1)Nc1nc(Nc2ccc(Cl)cc2)sc1C(=O)c1ccncc1 [Example 360, 1-[2-(4-Chloro-phenylamino)-5-(pyridine-4-carbonyl)-thiazol-4-yl]-3-(4-fluoro-phenyl)-urea] | – | 69.8 | –
Cc1cc(-c2sc(Nc3ccc(Cl)cc3)nc2NC(=O)Nc2ccc(F)cc2)ncc1OCC(F)(F)F [Example 361, 1-{2-(4-Chloro-phenylamino)-5-[4-methyl-5-(2,2,2-trifluoro-ethoxy)-pyridin-2-yl]-thiazol-4-yl}-3-(4-fluoro-phenyl)-urea] | – | 77.9 | –
COc1ccc(Nc2nc(NC(=O)Nc3ccc(F)cc3)c(C(=O)c3ccc(C)cc3)s2)cc1 [Example 362, 1-[2-(4-Methoxy-phenylamino)-5-(4-methyl-benzoyl)-thiazol-4-yl]-3-(4-fluoro-phenyl)-urea] | – | 61.3 | –
COc1ccc(Nc2nc(NC(=O)Nc3ccc(F)cc3)c(C(=O)c3ccc(Cl)cc3)s2)cc1 [Example 363, 1-[5-(4-Chloro-benzoyl)-2-(4-methoxy-phenylamino)-thiazol-4-yl]-3-(4-fluoro-phenyl)-urea] | – | 54.5 | –
COc1ccc(Nc2nc(NC(=O)Nc3ccc(F)cc3)c(C(=O)c3ccc(S(C)(=O)=O)cc3)s2)cc1 [Example 364, 1-(4-Fluoro-phenyl)-3-[5-(4-methanesulfonyl-benzoyl)-2-(4-methoxy-phenylamino)-thiazol-4-yl]-urea] | 66.78 | – | –
COc1ccc(Nc2nc(NC(=O)Nc3ccc(F)cc3)c(C(=O)c3ccncc3)s2)cc1 [Example 365, 1-(4-Fluoro-phenyl)-3-[2-(4-methoxy-phenylamino)-5-(pyridine-4-carbonyl)-thiazol-4-yl]-urea] | – | 69.6 | –
COc1ccc(Nc2nc(NC(=O)Nc3ccc(F)cc3)c(-c3cc(C)c(OC)c(C)n3)s2)cc1 [Example 366, 1-(4-Fluoro-phenyl)-3-[5-(5-methoxy-4,6-dimethyl-pyridin-2-yl)-2-(4-methoxy-phenylamino)-thiazol-4-yl]-urea] | – | 19.1 | –
COc1ccc(C(=O)c2sc(N3CCN(C(=O)c4ccco4)CC3)nc2-c2ccco2)cc1 [Example 372, {2-[4-(Furan-2-carbonyl)-piperazin-1-yl]-4-furan-2-yl-thiazol-5-yl}-(4-methoxy-phenyl)-methanone] | – | 52.2 | –
O=C(c1ccccn1)c1sc(N2CCN(C(=O)c3ccco3)CC2)nc1-c1ccco1 [Example 380, {2-[4-(Furan-2-carbonyl)-piperazin-1-yl]-4-furan-2-yl-thiazol-5-yl}-pyridin-2-yl-methanone] | – | 42 | –
Cc1ccc(C(=O)c2sc(N3CCN(C(=O)c4ccco4)CC3)nc2-c2ccccc2)cc1 [Example 381, {2-[4-(Furan-2-carbonyl)-piperazin-1-yl]-4-phenyl-thiazol-5-yl}-tolyl-methanone] | 53 | – | AP-1 inhibition @ 1 uM (AP-1): 10.42
COc1ccc(C(=O)c2sc(N3CCN(C(=O)c4ccco4)CC3)nc2-c2ccccc2)cc1 [Example 382, {2-[4-(Furan-2-carbonyl)-piperazin-1-yl]-4-phenyl-thiazol-5-yl}-(4-methoxy-phenyl)-methanone] | – | 46 | –
O=C(c1ccncc1)c1sc(N2CCN(C(=O)c3ccco3)CC2)nc1-c1ccccc1 [Example 387, {2-[4-(Furan-2-carbonyl)-piperazin-1-yl]-4-phenyl-thiazol-5-yl}-pyridin-4-yl-methanone] | – | 32 | –
COc1ccccc1Nc1nc(-c2ccccc2)c(C(=O)c2sc(Nc3ccccc3OC)nc2-c2ccccc2)s1 [Example 391, Bis-[2-(2-methoxy-phenylamino)-4-phenyl-thiazol-5-yl]-methanone] | – | 59 | –
COc1cccc(Nc2nc(-c3ccccc3)c(C(=O)c3sc(Nc4cccc(OC)c4)nc3-c3ccccc3)s2)c1 [Example 392, Bis-[2-(3-methoxy-phenylamino)-4-phenyl-thiazol-5-yl]-methanone] | – | 62 | –
COc1ccc(Nc2nc(-c3ccccc3)c(C(=O)c3sc(Nc4ccc(OC)cc4)nc3-c3ccccc3)s2)cc1 [Example 393, Bis-[2-(4-methoxy-phenylamino)-4-phenyl-thiazol-5-yl]-methanone] | – | 32 | –
Bis-(2-methylamino-4-benzayl-thiazole-5-yl)-methanone [Example 132] | 47 | – | –
Diphenyl[carbonylbis(4-Benzyl-1,3-thiazole-5,2-diyl)]biscarbamate [Example 395] | 66 | – | –
N-[4-(5-Morpholin-4-yl-4-thiophene-2-carbonyl)-phenyl]-acetamide [Example 49] | 68.31 | – | –
[4-(4-Chloro-phenyl)-5-morpholin-4-yl-thiophen-2-yl]-(5-methoxy-4,6-dimethyl-pyridin-2-yl)-methanone [Example 76] | 17 | – | –
